Measured values: US6245817A, “NPY5 receptor antagonists and methods for using same” (Bayer Corporation, priority 1999, dated 2001)
Structures can show the parent of a compound that is named as a salt.

Key:
Human NPY5 Receptor = molecular target: T1, Human NPY5 Receptor (Homo sapiens, UniProt Q15761); assay: Human NPY5 Receptor Binding Assay; conditions: [125I]PYY; read-out: hNPY5 IC50
T1 sequence (Q15761 1-445): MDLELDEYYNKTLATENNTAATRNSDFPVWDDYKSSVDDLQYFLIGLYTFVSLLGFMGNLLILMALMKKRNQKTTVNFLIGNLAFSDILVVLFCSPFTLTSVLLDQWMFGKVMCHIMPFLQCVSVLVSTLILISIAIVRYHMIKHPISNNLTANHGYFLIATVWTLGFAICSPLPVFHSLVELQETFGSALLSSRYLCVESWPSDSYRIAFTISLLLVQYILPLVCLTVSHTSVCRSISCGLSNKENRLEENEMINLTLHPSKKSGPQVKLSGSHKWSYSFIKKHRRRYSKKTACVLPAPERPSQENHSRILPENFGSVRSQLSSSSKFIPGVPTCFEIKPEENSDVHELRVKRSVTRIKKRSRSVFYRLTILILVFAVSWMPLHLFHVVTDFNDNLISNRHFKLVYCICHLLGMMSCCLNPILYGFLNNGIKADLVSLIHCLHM

Human NPY1 Receptor = molecular target: T2, Human NPY1 Receptor (Homo sapiens, UniProt P25929); assay: Human NPY1 Receptor Binding Assay; conditions: SK-N-MC cells, [125I]PYY; read-out: hNPY1 IC50
T2 sequence (P25929 1-384): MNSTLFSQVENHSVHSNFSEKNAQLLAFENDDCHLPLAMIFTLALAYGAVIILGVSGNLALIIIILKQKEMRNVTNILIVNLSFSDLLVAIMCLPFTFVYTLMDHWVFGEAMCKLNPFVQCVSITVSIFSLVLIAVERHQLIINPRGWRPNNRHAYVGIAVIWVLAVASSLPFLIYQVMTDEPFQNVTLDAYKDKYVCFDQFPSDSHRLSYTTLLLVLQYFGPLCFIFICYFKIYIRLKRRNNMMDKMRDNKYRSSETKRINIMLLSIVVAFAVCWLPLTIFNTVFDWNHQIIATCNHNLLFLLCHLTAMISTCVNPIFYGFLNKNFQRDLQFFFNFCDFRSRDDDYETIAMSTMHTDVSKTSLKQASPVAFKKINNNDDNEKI

Rat NPY5 Receptor [1] = molecular target: T3, Rat NPY5 Receptor (Rattus norvegicus, UniProt Q63634); assay: Rat NPY5 Receptor Binding Assay; conditions: [125I]PYY; read-out: rNPY5 IC50
T3 sequence (Q63634 1-445): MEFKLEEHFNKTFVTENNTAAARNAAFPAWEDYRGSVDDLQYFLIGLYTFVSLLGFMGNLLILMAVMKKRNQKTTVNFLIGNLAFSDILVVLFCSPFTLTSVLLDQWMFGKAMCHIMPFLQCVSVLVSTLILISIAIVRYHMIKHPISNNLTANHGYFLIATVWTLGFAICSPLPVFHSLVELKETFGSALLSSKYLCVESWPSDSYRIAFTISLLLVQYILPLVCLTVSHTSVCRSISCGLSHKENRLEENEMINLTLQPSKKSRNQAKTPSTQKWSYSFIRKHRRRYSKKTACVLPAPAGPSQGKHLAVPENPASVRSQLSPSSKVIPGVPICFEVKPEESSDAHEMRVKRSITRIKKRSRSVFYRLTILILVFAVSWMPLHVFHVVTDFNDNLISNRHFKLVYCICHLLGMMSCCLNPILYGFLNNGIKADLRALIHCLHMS

Rat NPY5 Receptor [2] = molecular target: T3, Rat NPY5 Receptor; assay: Rat NYP5 Cyclase Assay (In Vitro Functional Assay); assay type: cell-based; conditions: 20 min, percentage of forskolin-stimulated adenylate cyclase, read-out: rNPY5 % FSAC (10 μM)
Experimental: D. Rat NYP5 Cyclase Assay (In Vitro Functional Assay)
Cells stably expressing the rat NPY5 receptor are resuspended in serum-free DMEM containing 10 mM HEPES (pH 7.4) and 1 mM isobutylmethylxanthine (IBMX). 1 μM forskolin and drug dilution are then added to the cells. After a 20 minute incubation of the samples at 37° C., the assay is stopped by placing the samples in boiling water for 3 minutes. The cAMP produced in each sample is quantitated with a radioimmunoassay kit (NEN Dupont). Data are expressed as a percentage of forskolin-stimulated adenylate cyclase.

Human NPY4/PP1 receptor = Human NPY4/PP1 receptor (Homo sapiens, UniProt P50391); assay: Human NPY4/PP1 Receptor Binding Assay; conditions: [125I]human PP; read-out: hNPY4 IC50
Human NPY2 receptor = molecular target: T4, Human NPY2 receptor (Homo sapiens, UniProt P49146); assay: Human NPY2 Receptor Binding Assay; conditions: [125I]PYY; read-out: hPPY2 IC50
T4 sequence (P49146 1-381): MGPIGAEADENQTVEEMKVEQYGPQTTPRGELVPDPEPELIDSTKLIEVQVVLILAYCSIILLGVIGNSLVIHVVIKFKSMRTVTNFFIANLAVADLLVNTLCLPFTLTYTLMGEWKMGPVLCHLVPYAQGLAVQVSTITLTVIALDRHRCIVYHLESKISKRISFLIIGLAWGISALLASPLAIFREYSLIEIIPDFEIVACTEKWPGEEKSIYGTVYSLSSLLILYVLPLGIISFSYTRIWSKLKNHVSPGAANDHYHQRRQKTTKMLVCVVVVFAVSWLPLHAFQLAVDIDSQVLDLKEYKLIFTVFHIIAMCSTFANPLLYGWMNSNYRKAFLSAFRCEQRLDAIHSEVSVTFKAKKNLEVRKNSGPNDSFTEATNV
Experimental: Binding assays were performed on GF/C Millipore 96-well plates pretreated with 0.02% polyethylenimine. The binding buffer for rat Y2 binding is Krebs-Ringer bicarbonate (pH 7.4) containing 0.01% BSA and 0.005% bacitracin. Samples consist of membrane protein, 25 pM [125I]PYY and drug dilution. Nonspecific binding is defined by 1 μpM NPY.
After a 2 hour incubation at room temperature with constant mixing, the samples are aspirated on a vacuum manifold, and rinsed with ice-cold binding buffer. The amount of radioactivity in each well is quantitated with either gamma counting or liquid scintillation.

Chain of Human NPY4/PP1 receptor (P50391 whole entry): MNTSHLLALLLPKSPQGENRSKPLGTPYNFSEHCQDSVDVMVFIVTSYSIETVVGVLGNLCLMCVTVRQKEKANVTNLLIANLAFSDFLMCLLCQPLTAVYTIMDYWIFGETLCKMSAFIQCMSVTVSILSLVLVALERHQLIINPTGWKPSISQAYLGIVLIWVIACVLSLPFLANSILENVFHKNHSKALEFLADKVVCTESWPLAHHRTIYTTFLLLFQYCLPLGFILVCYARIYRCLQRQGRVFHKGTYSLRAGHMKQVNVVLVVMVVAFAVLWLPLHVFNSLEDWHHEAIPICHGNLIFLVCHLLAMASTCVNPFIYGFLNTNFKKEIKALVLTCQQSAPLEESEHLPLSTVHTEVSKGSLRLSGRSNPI

| Structure (SMILES) | IC50 (Human NPY5 Receptor) | IC50 (Human NPY1 Receptor) | IC50 (Rat NPY5 Receptor [1]) | activity at 10 µM (Rat NPY5 Receptor [2]) | IC50 (Human NPY4/PP1 receptor) | IC50 (Human NPY2 receptor) |
| --- | --- | --- | --- | --- | --- | --- |
| Cn1nnnc1SCC(=O)Nc1ccc(C2CCCCC2)cc1 [Compound 8, N-(4-Cyclohexyl-phenyl)-2-(1-methyl-1H-tetrazol-5-ylsulfanyl)-acetamide] | 0.16 µM | > 5 µM | 0.029 µM | 99% | > 5 µM | > 5 µM |
| Nc1nnc(SCC(=O)Nc2ccc(C3CCCCC3)cc2)s1 [Compound 51, 2-(-Amino-[1,3,4]thiadiazol-2-ylsulfanyl)-N-4-cydohexyl-phenyl-cetamide] | 0.22 µM | – | – | 105% | – | > 5 µM |
| Cn1ccnc1SCC(=O)Nc1ccc(C2CCCCC2)cc1 [Compound 3, N-(4-Cyclohexyl-phenyl)-2-(1-methyl-1H-imidazol-2-ylsulfanyl)-acetamide Hydrochloride] | 0.16 µM | > 5 µM | 0.12 µM | 103% | > 5 µM | > 5 µM |
| Cn1ccnc1SCC(=O)Nc1ccc(C(C)(C)C)cc1 [Compound 143, N-(4-tert-Butyl-phenyl)-2-(1-methyl-1H-imidazol-2-ylsulfanyl)-acetamide, reference compound] | 3.1 µM | > 5 µM | 3.9 µM | – | > 5 µM | > 5 µM |
